Data: US20240360126A1, “PYRAZOLO[3,4-B]PYRIDINE COMPOUNDS FOR THE TREATMENT OF AUTOIMMUNE DISEASE” (Hoffmann-La Roche Inc., priority 2021, published 2024)

System: embryonic stem cells (D3) and 3T3 fibroblasts
Assay: mouse Embryonic Stem Cell Test (mEST)
Assay type: cell-based
Details: <0.5 negative, >0.6 positive
Excerpt: The in vitro mouse Embryonic Stem Cell Test (mEST) assay is an implemented routine assay at Roche. The original EST was developed by Horst Spielmann and his group in 1997 as an in vitro model for the screening of embryotoxicity, based on a blastocyst-derived permanent embryonic mouse ESC (mESC) D3 cell line derived from mouse 129 strains and was validated by European Centre for the Validation of Alternative Methods (ECVAM).
We further optimized and modified the approach allowing for the application of the assay to pharmaceutical compounds.
The cytotoxicity (inhibition of growth) of 3T3 fibroblasts, which represents differentiated cells and the cytotoxicity of undifferentiated embryonic stem cells (D3) after 10 days of substance treatment serve as two assay endpoints. This is determined by the use of dehydrogenase enzymes, which are present in the intact mitochondria of living cells to convert yellow soluble substrate 3-(4,5-dimethythiazol-2-yl)-2,5-diphenyl tetrazolium bromide (MTT) into a dark blue insoluble formazan product, which gets sequestered within the cells and is detected quantitatively using an absorbance reader (570 nm) after solubilizing the cell membrane.
The third endpoint is the inhibition of differentiation of ES cells into myocards which are cardiac muscle cells after 10 days of treatment. The beating of this cells is evaluated by microscopy. […]

Structure (SMILES)	Predictive scores D12_3
Cc1cc(N2CC[C@H](c3ccc(N4CCOC[C@@H](N)C4)cn3)[C@@H](C)C2)c2cnn(C)c2n1 [Example 40, (6S)-4-[6-[(3R,4S)-1-(1,6-dimethylpyrazolo[3,4-b]pyridin-4-yl)-3-methyl-4-piperidyl]-3-pyridyl]-1,4-oxazepan-6-amine]	0.36
Cc1cc(N2CC[C@@H](c3ncc(N4CCOC[C@@H](N)C4)cc3C)[C@H](C)C2)c2cnn(C)c2n1 [Example 28, (6S)-4-[6-[(3S,4R)-1-(1,6-dimethylpyrazolo[3,4-b]pyridin-4-yl)-3-methyl-4-piperidyl]-5-methyl-3-pyridyl]-1,4-oxazepan-6-amine]	0.44
